Molecular target: T1, AmxMT1 (Candidatus Brocadia fulgida, UniProt A0A0M2USF2)
T1 construct: gene BROFUL_02287; five N-terminal residues removed; C-terminal TEV site and 6xHis tag, His tag cleaved; codon-optimised, pET28b, E. coli C43(DE3) with pGro7; one molecule in the asymmetric unit
T1 sequence (A0A0M2USF2 6-354): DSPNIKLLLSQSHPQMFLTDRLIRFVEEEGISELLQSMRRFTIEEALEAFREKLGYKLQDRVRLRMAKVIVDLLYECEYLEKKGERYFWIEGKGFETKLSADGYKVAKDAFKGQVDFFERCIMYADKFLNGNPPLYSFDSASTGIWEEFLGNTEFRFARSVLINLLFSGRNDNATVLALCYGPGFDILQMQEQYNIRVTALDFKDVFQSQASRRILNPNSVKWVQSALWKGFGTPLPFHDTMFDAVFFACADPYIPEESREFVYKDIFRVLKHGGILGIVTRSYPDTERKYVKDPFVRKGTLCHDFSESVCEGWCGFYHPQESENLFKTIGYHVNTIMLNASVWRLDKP
Experiment: X-ray crystal structure of the complex (SAD phasing, molecular replacement)
Assay type: binding
Details: SAM (2.25 mM) added for crystallization, SAH found in the crystal; 5 mM DTT; HEPES pH 7.0, PEG 2000, 20 °C; cosubstrate pocket between core domain and inserted helix

Compound: Nc1ncnc2c1ncn2[C@@H]1O[C@H](CSCC[C@H](N)C(=O)O)[C@@H](O)[C@H]1O [SAH]
- X-ray crystal structure of the complex (SAD phasing, molecular replacement): S-adenosyl-L-homocysteine (SAH) is located in the pocket between the core domain and inserted helix

Source: publication PMC9821293, “Anammox Bacterial S-Adenosyl-L-Methionine Dependent Methyltransferase Crystal Structure and Its Interaction with Acyl Carrier Proteins” (International Journal of Molecular Sciences, 2023)
